Assay results published in patent US11986532B2 (Arvinas Operations, Inc., priority 2021, dated 2024).
Read-outs that look alike come from different tables or passages of the source.

Target: T1, BCL6 (Homo sapiens, UniProt P41182)
T1 construct: endogenous in cells; host or cells: T47D breast cancer epithelial cells
Assay: Immunofluorescence protocol for high content imaging of BCL6 (degradation) in T47D cells, 3 days compound treatment
Format: cell-based
Details: for DC50: read-out: Mean DC50 (nM)* category; for Dmax: read-out: Mean Dmax (%)** category
Method in brief: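 High content immunofluorescence imaging (10×, 4 fields/well) of BCL6 using rabbit primary antibody, Alexa-488 secondary, cell mask and Hoechst nuclear stain after PFA fixation. Before staining, T47D cells (7K/well) were exposed for 3 days at 37° C to 3-fold serial dilutions of compound, top final concentration 0.1 or 1 μM.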

[1] = T47D cells, 3 days compound treatment

Compound | DC50 [1] [nM] | Dmax [1] [%] | Dmax (T47D) [%] | DC50 [nM]
CNC(=O)COc1cc2cc(Nc3nc(N4CCN(C(C)(C)C5CCN(c6ccc7c(c6F)CN(C6CCC(=O)NC6=O)C7=O)CC5)CC4)ncc3Cl)ccc2n(C(C)C)c1=O (stereo not shown) [Compound 89, 2-{[6-({5-chloro-2-[4-(2-{1-[2-(2,6-dioxopiperidin-3-yl)-4-fluoro-1-oxo-2,3-dihydro-1H-isoindol-5-yl]piperidin-4-yl}propan-2-yl)piperazin-1-yl]pyrimidin-4-yl}amino)-2-oxo-1-(propan-2-yl)-1,2-dihydroquinolin-3-yl]oxy}-N-methylacetamide] | < 10 | 50 to 70 | – | –
CNC(=O)COc1cc2cc(Nc3nc(N4CCC(O[C@H]5C[C@H](N6CC[C@H](c7ccc8c(c7)CN(C7CCC(=O)NC7=O)C8=O)[C@H](F)C6)C5)CC4)ncc3Cl)ccc2n(C(C)C)c1=O (mixture of isomers) [Compound 131] | < 10 | 50 to 70 | – | –
CNC(=O)COc1cc2cc(Nc3nc(N4CCN(CC5CCN(c6c(F)ccc7c6C(=O)N(C6CCC(=O)NC6=O)C7=O)CC5)CC4)ncc3Cl)ccc2n(C)c1=O (stereo not shown) [Compound 35, 2-{[6-({5-chloro-2-[4-({1-[2-(2,6-dioxopiperidin-3-yl)-5-fluoro-1,3-dioxo-2,3-dihydro-1H-isoindol-4-yl]piperidin-4-yl}methyl)piperazin-1-yl]pyrimidin-4-yl}amino)-1-methyl-2-oxo-1,2-dihydroquinolin-3-yl]oxy}-N-methylacetamide] | < 10 | 50 to 70 | – | –
CNC(=O)COc1cc2cc(Nc3nc(N4CCN(CC5CCN(c6ccc(OC)c7c6CN(C6CCC(=O)NC6=O)C7=O)CC5)CC4)ncc3Cl)ccc2n(C(C)C)c1=O (stereo not shown) [Compound 121, 2-{[6-({5-chloro-2-[4-({1-[2-(2,6-dioxopiperidin-3-yl)-7-methoxy-1-oxo-2,3-dihydro-1H-isoindol-4-yl]piperidin-4-yl}methyl)piperazin-1-yl]pyrimidin-4-yl}amino)-2-oxo-1-(propan-2-yl)-1,2-dihydroquinolin-3-yl]oxy}-N-methylacetamide] | < 10 | 50 to 70 | – | –
CNC(=O)COc1cc2c(F)c(Nc3nc(N4CCC(O[C@H]5C[C@H](N6CCC(c7ccc8c(c7F)CN([C@@H]7CCC(=O)NC7=O)C8=O)CC6)C5)CC4)ncc3Cl)ccc2n(C(C)C)c1=O [Compound 381, 2-({6-[(5-chloro-2-{4-[(1r,3r)-3-(4-{2-[(3R)-2,6-dioxopiperidin-3-yl]-4-fluoro-1-oxo-2,3-dihydro-1H-isoindol-5-yl}piperidin-1-yl)cyclobutoxy]piperidin-1-yl}pyrimidin-4-yl)amino]-5-fluoro-2-oxo-1-(propan-2-yl)-1,2-dihydroquinolin-3-yl}oxy)-N-methylacetamide] | – | – | ≥ 70 | < 10
CNC(=O)COc1cc2cc(Nc3nc(N4CCC(O[C@H]5C[C@H](N6CCC7(CC6)CN(c6ccc8c(c6)CN(C6CCC(=O)NC6=O)C8=O)C7)C5)CC4)ncc3Cl)ccc2n(C(C)C)c1=O (stereo partly shown) [Compound 366, 2-({6-[(5-chloro-2-{4-[(1r,3r)-3-{2-[2-(2,6-dioxopiperidin-3-yl)-1-oxo-2,3-dihydro-1H-isoindol-5-yl]-2,7-diazaspiro [3.5]nonan-7-yl}cyclobutoxy]piperidin-1-yl}pyrimidin-4-yl)amino]-2-oxo-1-(propan-2-yl)-1,2-dihydroquinolin-3-yl}oxy)-N-methylacetamide] | – | – | ≥ 70 | < 10
CNC(=O)COc1cc2cc(Nc3nc(C)ncc3Cl)ccc2n(CCOc2ccc3c(c2)C(=O)N(C2CCC(=O)NC2=O)C3=O)c1=O (stereo not shown) [Compound 147, 2-({6-[(5-chloro-2-methylpyrimidin-4-yl)amino]-1-(2-{[2-(2,6-dioxopiperidin-3-yl)-1,3-dioxo-2,3-dihydro-1H-isoindol-5-yl]oxy}ethyl)-2-oxo-1,2-dihydroquinolin-3-yl}oxy)-N-methylacetamide] | < 10 | – | – | –
CNC(=O)COc1cc2cc(Nc3nc(N4CCC(CN5CCC6(CN(c7cc8c(c(OC)c7)C(=O)N(C7CCC(=O)NC7=O)C8)C6)C(F)(F)C5)CC4)ncc3Cl)ccc2n(C(C)C)c1=O (stereo not shown) [Compound 101, 2-{[6-({5-chloro-2-[4-({2-[2-(2,6-dioxopiperidin-3-yl)-7-methoxy-1-oxo-2,3-dihydro-1H-isoindol-5-yl]-5,5-difluoro-2,7-diazaspiro[3.5]nonan-7-yl}methyl)piperidin-1-yl]pyrimidin-4-yl}amino)-2-oxo-1-(propan-2-yl)-1,2-dihydroquinolin-3-yl]oxy}-N-methylacetamide] | < 10 | 50 to 70 | – | –
CC(C)n1c(=O)c(OCC(=O)O)cc2cc(Nc3nc(N4CCC(O[C@H]5C[C@H](N6CCC(c7ccc8c(c7F)CN(C7CCC(=O)NC7=O)C8=O)CC6)C5)CC4)ncc3Cl)ccc21 (stereo partly shown) [Compound 264, 2-({6-[(5-chloro-2-{4-[(1r,3r)-3-{4-[2-(2,6-dioxopiperidin-3-yl)-4-fluoro-1-oxo-2,3-dihydro-1H-isoindol-5-yl]piperidin-1-yl}cyclobutoxy]piperidin-1-yl}pyrimidin-4-yl)amino]-2-oxo-1-(propan-2-yl)-1,2-dihydroquinolin-3-yl}oxy)acetic acid] | – | – | ≥ 70 | < 10
CNC(=O)COc1cc2cc(Nc3nc(N4CCC(CN5CCC6(CC5)CN(c5ccc7c(c5F)CN(C5CCC(=O)NC5=O)C7=O)C6(C)C)CC4)ncc3Cl)ccc2n(C(C)C)c1=O (stereo not shown) [Compound 162, 2-{[6-({5-chloro-2-[4-({2-[2-(2,6-dioxopiperidin-3-yl)-4-fluoro-1-oxo-2,3-dihydro-1H-isoindol-5-yl]-1,1-dimethyl-2,7-diazaspiro[3.5]nonan-7-yl}methyl)piperidin-1-yl]pyrimidin-4-yl}amino)-2-oxo-1-(propan-2-yl)-1,2-dihydroquinolin-3-yl]oxy}-N-methylacetamide] | < 10 | ≥ 70 | – | –
CNC(=O)COc1cc2cc(Nc3nc(N4CCN(C[C@H]5C[C@H](N6CCC(c7cccc8c7C(=O)N(C7CCC(=O)NC7=O)C8=O)CC6)C5)CC4)ncc3Cl)ccc2n(C(C)C)c1=O (stereo partly shown) [Compound 24, 2-[(6-{[5-chloro-2-(4-{[(1r,3r)-3-{4-[2-(2,6-dioxopiperidin-3-yl)-1,3-dioxo-2,3-dihydro-1H-isoindol-4-yl]piperidin-1-yl}cyclobutyl]methyl}piperazin-1-yl)pyrimidin-4-yl]amino}-2-oxo-1-(propan-2-yl)-1,2-dihydroquinolin-3-yl)oxy]-N-methylacetamide] | 50 to 100 | < 50 | – | –
CNC(=O)COc1cc2cc(Nc3nc(N4CCC(CN5CCC6(CN(c7ccc8c(c7)C(=O)N(C7CCC(=O)NC7=O)C8=O)C6)C(F)C5)CC4)ncc3Cl)ccc2n(C(C)C)c1=O (stereo not shown) [Compound 134, 2-{[6-({5-chloro-2-[4-({2-[2-(2,6-dioxopiperidin-3-yl)-1,3-dioxo-2,3-dihydro-1H-isoindol-5-yl]-5-fluoro-2,7-diazaspiro[3.5]nonan-7-yl}methyl)piperidin-1-yl]pyrimidin-4-yl}amino)-2-oxo-1-(propan-2-yl)-1,2-dihydroquinolin-3-yl]oxy}-N-methylacetamide] | < 10 | < 50 | – | –
CNC(=O)COc1cc2cc(Nc3nc(N4CCC(F)(CN5CCC6(CC5)CCN(c5cccc7c5C(=O)N(C5CCC(=O)NC5=O)C7=O)CC6)CC4)ncc3Cl)ccc2n(C(C)C)c1=O (stereo not shown) [Compound 62, 2-{[6-({5-chloro-2-[4-({9-[2-(2,6-dioxopiperidin-3-yl)-1,3-dioxo-2,3-dihydro-1H-isoindol-4-yl]-3,9-diazaspiro[5.5]undecan-3-yl}methyl)-4-fluoropiperidin-1-yl]pyrimidin-4-yl}amino)-2-oxo-1-(propan-2-yl)-1,2-dihydroquinolin-3-yl]oxy}-N-methylacetamide] | < 10 | ≥ 70 | – | –
CNC(=O)COc1cc2cc(Nc3nc(N4CCC(CN5CCC6(CC5)CN(c5ccc7c(c5C(C)C)CN(C5CCC(=O)NC5=O)C7=O)C6)CC4)ncc3Cl)ccc2n(C(C)C)c1=O (stereo not shown) [Compound 272, 2-{[6-({5-chloro-2-[4-({2-[2-(2,6-dioxopiperidin-3-yl)-1-oxo-4-(propan-2-yl)-2,3-dihydro-1H-isoindol-5-yl]-2,7-diazaspiro[3.5]nonan-7-yl}methyl)piperidin-1-yl]pyrimidin-4-yl}amino)-2-oxo-1-(propan-2-yl)-1,2-dihydroquinolin-3-yl]oxy}-N-methylacetamide] | – | – | 50 to 70 | < 10
CNC(=O)COc1cc2cc(Nc3nc(N4CCC(O[C@H]5C[C@H](N6CCC(c7cc8c(cc7Cl)C(=O)N(C7CCC(=O)NC7=O)C8)CC6)C5)CC4)ncc3Cl)ccc2n(C(C)C)c1=O (stereo partly shown) [Compound 329, 2-({6-[(5-chloro-2-{4-[(1r,3r)-3-{4-[6-chloro-2-(2,6-dioxopiperidin-3-yl)-1-oxo-2,3-dihydro-1H-isoindol-5-yl]piperidin-1-yl}cyclobutoxy]piperidin-1-yl}pyrimidin-4-yl)amino]-2-oxo-1-(propan-2-yl)-1,2-dihydroquinolin-3-yl}oxy)-N-methylacetamide] | – | – | 50 to 70 | < 10
CNC(=O)COc1cc2cc(Nc3nc(N4CCC(F)(CN5CCC6(CC5)CCN(c5cc(F)cc7c5CN(C5CCC(=O)NC5=O)C7=O)CC6)CC4)ncc3Cl)ccc2n(C(C)C)c1=O (stereo not shown) [Compound 73, 2-{[6-({5-chloro-2-[4-({9-[2-(2,6-dioxopiperidin-3-yl)-6-fluoro-1-oxo-2,3-dihydro-1H-isoindol-4-yl]-3,9-diazaspiro [5.5]undecan-3-yl}methyl)-4-fluoropiperidin-1-yl]pyrimidin-4-yl}amino)-2-oxo-1-(propan-2-yl)-1,2-dihydroquinolin-3-yl]oxy}-N-methylacetamide] | < 10 | 50 to 70 | – | –
